Source: US20250170126A1 (MITSUBISHI TANABE PHARMA CORPORATION, priority 2022, published 2025)
Counter-ions that a name gives are not always drawn.

target: Human B0AT1 (Homo sapiens (Human), UniProt Q695T7); assay: hB0AT1 inhibitory test (phenylalanine uptake); format: cell-based; settings: Human B0AT1 stable expression CHO cells; [3H]-L-phenylalanine uptake, phenylalanine 0.25 mM
Procedure, shortened: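 CHO cells stably expressing human B0AT1, in sodium-containing HEPES buffer with 0.01% BSA, preincubated with compound (0.5% DMSO) 30 min or longer at ambient temperature. Uptake of [3H]-L-phenylalanine (0.25 mM final) read by scintillation, analysed at 100-200 min; non-specific uptake from […] N-(4-bromophenyl)-3,5-dichloro-2-hydroxybenzamide, IC50 by logistic nonlinear regression.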

Chain of Human B0AT1 (Q695T7 whole entry): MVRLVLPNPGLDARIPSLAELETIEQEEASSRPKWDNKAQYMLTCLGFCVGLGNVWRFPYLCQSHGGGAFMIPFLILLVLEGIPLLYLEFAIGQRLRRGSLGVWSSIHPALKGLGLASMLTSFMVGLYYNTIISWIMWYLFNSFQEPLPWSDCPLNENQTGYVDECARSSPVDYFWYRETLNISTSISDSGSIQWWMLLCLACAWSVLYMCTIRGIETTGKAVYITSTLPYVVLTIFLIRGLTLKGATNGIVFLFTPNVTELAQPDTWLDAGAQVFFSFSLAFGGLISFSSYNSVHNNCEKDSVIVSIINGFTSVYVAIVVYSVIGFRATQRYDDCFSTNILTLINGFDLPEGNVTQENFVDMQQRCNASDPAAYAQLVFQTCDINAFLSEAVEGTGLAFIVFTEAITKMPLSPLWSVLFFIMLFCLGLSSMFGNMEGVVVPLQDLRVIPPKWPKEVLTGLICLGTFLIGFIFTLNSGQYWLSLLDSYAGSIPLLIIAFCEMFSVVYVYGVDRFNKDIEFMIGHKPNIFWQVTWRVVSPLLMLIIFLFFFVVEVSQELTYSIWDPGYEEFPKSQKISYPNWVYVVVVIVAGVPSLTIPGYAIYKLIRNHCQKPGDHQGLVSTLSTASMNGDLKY

Compound | IC50 [nM]
O=C(/C=C/c1ccc(C(F)(F)F)cc1)NCC(=O)N1CCc2ncncc2C1 [I-78] | 56
CO[C@H]1CCN(C(=O)CNC(=O)/C=C/c2ccc(C(F)(F)F)cc2)C1 [I-60] | 918
CCN(CCOC)C(=O)CNC(=O)/C=C/c1ccc(C(F)(F)F)cc1 [I-5] | 262
CN1CCN(C(=O)CNC(=O)/C=C/c2ccc(-c3cccnc3)cc2)CC1 [I-111] | 471
O=C(/C=C/c1ccc(C(F)(F)F)cc1)NCC(=O)N1CCc2c(cccc2C(=O)O)C1 [I-271] | 699
O=C(/C=C/c1ccc(C(F)(F)F)cc1)NCC(=O)N1CC[C@@H](n2cccn2)C1 [I-177] | 87
CN1CCN(C(=O)CNC(=O)/C=C/c2ccc(C3CCC3)cc2)CC1 [I-116] | 39
CN(C)C(=O)[C@H]1CCN(C(=O)CNC(=O)/C=C/c2ccc(C(F)(F)F)cc2)C1 [I-145, (3S)-N,N-dimethyl-1-[2-[[(E)-3-[4-(trifluoromethyl)phenyl]prop-2-enoyl]amino]acetyl]pyrrolidine-3-carboxamide] | 1700
O=C(/C=C/c1ccc(C(F)(F)F)cc1)NCC(=O)N1CCn2ncc(C(=O)N3CCCC3)c2C1 [I-222] | 33
Cc1noc([C@@H]2CCN(C(=O)CNC(=O)/C=C/c3ccc(C(F)(F)F)cc3)C2)n1 [I-69] | 1470
CC(C)c1ccc(/C=C/C(=O)NCC(=O)N2CCN(C)CC2)cc1 [I-106] | 276
CN1CCN(C(=O)CNC(=O)/C=C/c2ccc(OCC3CC3)cc2)CC1 [I-114] | 925
CC1CCN(C(=O)CNC(=O)/C=C/c2ccc(C(F)(F)F)cc2)c2ccnn21 (stereo not shown) [I-187] | 26
O=C(/C=C/c1ccc(C(F)(F)F)cc1)NCC(=O)N1CCNCC1 [I-133, (E)-N-(2-oxo-2-piperazin-1-ylethyl)-3-[4-(trifluoromethyl)phenyl]prop-2-enamide hydrochloride] | 69
CNC(=O)c1nn2c(c1Br)CN(C(=O)CNC(=O)/C=C/c1ccc(C(F)(F)F)cc1)CC2 [I-279] | 71
O=C(/C=C/c1ccc(C(F)(F)F)cc1)NCC(=O)N1CCc2cc(C(=O)O)c(F)cc2C1 [I-262] | 435
O=C(/C=C/c1ccc(C(F)(F)F)cc1)NCC(=O)N1CCc2cn[nH]c2C1 [I-42] | 73
O=C(/C=C/c1ccc(C(F)(F)F)cc1)NCC(=O)N1CC(=O)NC(c2ccccc2)C1 (single isomer, unassigned) [I-136, (E)-N-[2-oxo-2-[3-oxo-5-phenylpiperazin-1-yl]ethyl]-3-[4-(trifluoromethyl)phenyl]prop-2-enamide] | 87
CCOC(=O)N1CCN(C(=O)CNC(=O)/C=C/c2ccc(C(F)(F)F)cc2)CC1 [I-27] | 720
CNC(=O)[C@H]1CCN(C(=O)CNC(=O)/C=C/c2ccc(C(F)(F)F)cc2)C1 [I-144, (3S)-N-methyl-1-[2-[[(E)-3-[4-(trifluoromethyl)phenyl]prop-2-enoyl]amino]acetyl]pyrrolidine-3-carboxamide] | 261
COCCN(Cc1ccncn1)C(=O)CNC(=O)/C=C/c1ccc(C(F)(F)F)cc1 [I-54] | 438
COc1ccc2c(n1)CN(C(=O)CNC(=O)/C=C/c1ccc(C(F)(F)F)cc1)CC2 [I-94] | 40
